Values of other authors in US11925657B2, “Formulations and methods for treating conditions of the eye” (Sight Sciences, Inc., priority 2020, dated 2024).

Assays:
[1] = antibiotic levels of azithromycin (1%)
[2] = lower concentrations, e.g. 0.1% and 0.35%

Compound | phase transition temperature of meibum lipids and lipid ordering [1] | efficacy toward intended rosacea treatment [2]
CC[C@H]1OC(=O)[C@H](C)[C@@H](O[C@H]2C[C@@](C)(OC)[C@@H](O)[C@H](C)O2)[C@H](C)[C@@H](O[C@@H]2O[C@H](C)C[C@H](N(C)C)[C@H]2O)[C@](C)(O)C[C@@H](C)CN(C)[C@H](C)[C@@H](O)[C@]1(C)O [azithromycin] | can improve | –
ivermectin | – | lose efficacy
